Results reported in ChEMBL document CHEMBL1128854, “Stereoselective synthesis and evaluation of all stereoisomers of Z4349, a novel and selective -opioid analgesic” (Bioorg Med Chem Lett, 1995).

How the values were obtained:
[1] = target: T1, Kappa-type opioid receptor (Rattus norvegicus, UniProt P34975); experiment: Inhibition of 9 (2 nM) binding to Opioid receptor kappa 1 of rat brain homogenate; type: tissue-based
Mus musculus = experiment: In vivo analgesic activity in hot plate test after subcutaneous administration in mice; type: functional; conditions: sc
[2] = target: T2, Delta-type opioid receptor (Rattus norvegicus, UniProt P33533); experiment: Inhibition of [3H]-[D-Pen2, D-Pen5]-enkephalin (2 nM) to Opioid receptor delta 1 of male Sprague-Dawley rat brain homogenate
Mu-type opioid receptor = Mu-type opioid receptor (Rattus norvegicus, UniProt P33535); experiment: Inhibition of [3H]dihydromorphine (1 nM) binding to mu opioid receptor of rat brain homogenate
[3] = target: T2, Delta-type opioid receptor; experiment: Inhibition of [3H]-[D-Pen2, D-Pen5]-enkephalin (2 nM) to Opioid receptor delta 1 of male Sprague-Dawley rat brain homogenate; Not detectable
[4] = target: T1, Kappa-type opioid receptor; experiment: […] to Opioid receptor kappa 1 of rat brain homogenate; Not detectable; type: tissue-based

T2 sequence (P33533 whole entry): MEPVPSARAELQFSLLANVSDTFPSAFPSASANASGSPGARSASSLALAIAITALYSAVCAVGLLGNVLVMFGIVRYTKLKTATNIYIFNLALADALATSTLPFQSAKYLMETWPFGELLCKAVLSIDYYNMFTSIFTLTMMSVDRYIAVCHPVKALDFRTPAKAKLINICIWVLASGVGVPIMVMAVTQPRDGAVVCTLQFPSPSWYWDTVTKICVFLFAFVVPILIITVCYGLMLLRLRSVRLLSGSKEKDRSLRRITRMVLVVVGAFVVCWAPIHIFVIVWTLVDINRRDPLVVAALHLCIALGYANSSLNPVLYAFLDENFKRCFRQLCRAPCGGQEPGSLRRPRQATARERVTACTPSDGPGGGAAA
Chain of Mu-type opioid receptor (P33535 whole entry): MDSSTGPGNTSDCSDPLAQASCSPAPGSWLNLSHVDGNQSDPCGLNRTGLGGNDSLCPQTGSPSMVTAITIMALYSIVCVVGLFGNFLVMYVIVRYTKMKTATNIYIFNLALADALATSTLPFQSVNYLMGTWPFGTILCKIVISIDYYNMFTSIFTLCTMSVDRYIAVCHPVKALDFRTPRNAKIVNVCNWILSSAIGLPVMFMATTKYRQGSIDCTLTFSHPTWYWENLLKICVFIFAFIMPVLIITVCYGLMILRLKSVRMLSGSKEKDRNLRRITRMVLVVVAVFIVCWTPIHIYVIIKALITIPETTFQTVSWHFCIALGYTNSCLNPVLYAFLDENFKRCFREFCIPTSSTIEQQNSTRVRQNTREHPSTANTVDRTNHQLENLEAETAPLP
T1 sequence (P34975 whole entry): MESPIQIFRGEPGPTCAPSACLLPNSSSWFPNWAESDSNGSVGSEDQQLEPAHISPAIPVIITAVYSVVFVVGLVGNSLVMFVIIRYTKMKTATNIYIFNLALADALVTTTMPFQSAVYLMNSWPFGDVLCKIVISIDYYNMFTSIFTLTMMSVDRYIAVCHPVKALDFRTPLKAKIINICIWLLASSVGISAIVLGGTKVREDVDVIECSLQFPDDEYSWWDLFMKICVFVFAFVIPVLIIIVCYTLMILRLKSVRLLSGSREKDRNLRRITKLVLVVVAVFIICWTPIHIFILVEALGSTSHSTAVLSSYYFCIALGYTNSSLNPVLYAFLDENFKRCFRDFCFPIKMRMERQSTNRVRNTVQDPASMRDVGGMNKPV

| SMILES | Ki [1] [nM] | ED50 (Mus musculus) [mg/kg] | Ki [2] [nM] | Ki (Mu-type opioid receptor) [nM] | Ki [3] | Ki [4] |
| --- | --- | --- | --- | --- | --- | --- |
| CC[C@@H](C)N(C[C@@H](O)[C@H]1CCC(=O)N1Cc1ccccc1Cl)[C@@H](C)CC | 260 | 14.3 | 1780 | 87 | – | – |
| CC[C@@H](C)N(C[C@@H](O)[C@H]1CCC(=O)N1Cc1ccccc1Cl)[C@H](C)CC | 4850 | 0.47 | > 5000 | 35 | – | – |
| CC[C@@H](C)N(C[C@H](O)[C@H]1CCC(=O)N1Cc1ccccc1Cl)[C@H](C)CC | > 5000 | 10.4 | 1850 | 100 | – | – |
| CC[C@@H](C)N(C[C@H](O)[C@H]1CCC(=O)N1Cc1ccccc1Cl)[C@@H](C)CC | 198 | > 100 | – | > 5000 | Not Active | – |
| CC[C@@H](C)N(C[C@H](O)[C@@H]1CCC(=O)N1Cc1ccccc1Cl)[C@@H](C)CC | – | 1.5 | > 5000 | 32 | – | Not Active |
| CC[C@@H](C)N(C[C@H](O)[C@@H]1CCC(=O)N1Cc1ccccc1Cl)[C@H](C)CC | 62.5 | 0.01 | 265 | 0.25 | – | – |
| CC[C@@H](C)N(C[C@@H](O)[C@@H]1CCC(=O)N1Cc1ccccc1Cl)[C@@H](C)CC | 3650 | > 100 | > 5000 | 340 | – | – |
| CC[C@H](C)N(C[C@H](O)[C@@H]1CCC(=O)N1Cc1ccccc1Cl)[C@@H](C)CC | > 5000 | > 100 | > 5000 | 2250 | – | – |
| CC[C@H](C)N(C[C@H](O)[C@H]1CCC(=O)N1Cc1ccccc1Cl)[C@@H](C)CC | 270 | > 100 | > 5000 | > 5000 | – | – |
| CN1CC[C@]23c4c5ccc(O)c4O[C@H]2[C@@H](O)C=C[C@H]3[C@H]1C5 [MORPHINE] | – | 4.6 | – | – | – | – |
| CC[C@H](C)N(C[C@@H](O)[C@H]1CCC(=O)N1Cc1ccccc1Cl)[C@@H](C)CC | – | > 100 | – | > 5000 | Not Active | Not Active |
| CC[C@H](C)N(C[C@@H](O)[C@@H]1CCC(=O)N1Cc1ccccc1Cl)[C@@H](C)CC | > 5000 | > 100 | > 5000 | 145 | – | – |
| CC[C@@H](C)N(C[C@@H](O)[C@@H]1CCC(=O)N1Cc1ccccc1Cl)[C@H](C)CC | > 5000 | > 100 | 550 | 390 | – | – |
